The text below walks through data of publication PMC10578354 (Journal of Medicinal Chemistry, 2023).

This test deals with T24 and 5637 bladder cancer cell lines and healthy bladder epithelial cells (BdECs). As to the kind of experiment: MTT proliferation assay. It counts as cell-based. As to conditions: T24 and 5637 vs BdEC, 72 h treatment, Figure 6B.

For `CN(C)CCOc1cccc(NC(=O)Cc2c[nH]c3cc(F)ccc23)c1` [NMX-10095, N-(3-(2-(Dimethylamino)ethoxy)phenyl)-2-(6-fluoro-1H-indol-3-yl)acetamide], the “inhibition of cell proliferation, cancer vs healthy cells” value is “differential inhibition of cell proliferation”.
